Data set [1] has as its system human B-cell lymphoma Ramos cells. Put plainly: Efficacy of anti-CD40 antibody and anlotinib, Ramos subcutaneous xenograft mouse model. The data set is classed as in vivo. The method, then:
Human B-cell lymphoma Ramos cells (purchased from the Cell Bank of the Chinese Academy of Sciences) were cultured in an RPMI1640 medium containing 10% of fetal bovine serum and penicillin-streptomycin. The cells were inoculated in a 37° C./5% CO2 incubator until the logarithmic growth phase and collected for grafting.
The mice used in this study were NOD-Scid mice (purchased from Shanghai Lingchang Biotechnology Co., Ltd.) aged about 6 weeks and bred in specific pathogen-free conditions in 12/12-hour light/dark cycles. The health status of the animals was monitored daily.
Each mouse was inoculated subcutaneously with 1×10^7 Ramos cells. When the tumor grew to 80-100 mm^3, the mice were divided into groups of 10 according to the tumor volume. The administration regimen is shown in Table 10, with the first dosing day designated as DO. Antibody huC1H1-V2 and IgG2 (Biointron, Cat. No. B107803) were both formulated to desired concentrations with normal saline, and anlotinib dihydrochloride was formulated at desired concentrations with distilled water. At the end of study (D14), the animals were sacrificed by CO2 anesthesia and dissected to give the tumors. The tumors were photographed.
The tumor diameters were measured twice weekly with a vernier caliper. Tumor volume (V)=½×a×b^2, wherein a and b denote length and width, respectively; T/C (%)=(T−T0)/(C−C0)×100, wherein T and C refer to the tumor volumes of the treatment group and the IgG2 control group on day 14, respectively, and TO and C0 refer to the tumor volumes of the treatment group and IgG2 control group on day 0, respectively; the tumor growth inhibition % (TGI %)=100−T/C (%). When the tumor regressed, the tumor growth inhibition % (TGI %)=100−(T−T0)/T0×100. If the tumor volume was smaller than the initial volume, i.e., T<T0 or C<C0, the outcome was defined as partial regression (PR); if the tumors completely disappeared, i.e., the outcome was defined as complete regression (CR).

Data set [2] addresses T1, Human CD40-his (Homo sapiens, UniProt P25942).
T1 construct: His; purchased Acro biosystems CD0-H5228
Put plainly: Biacore surface plasmon resonance affinity and binding kinetics. Particulars: for Kd: dissociation rate. From the text: (§1) The affinity and binding kinetics of the anti-CD40 antibody in the present application were characterized by a Biacore T200 system (GE Healthcare, Pittsburgh, PA, USA).
(§2) Briefly, a goat anti-human IgG (GE Healthcare, Cat. No. BR100839, human antibody capture kit) was covalently linked to a CM5 chip (GE Healthcare, Cat. No. BR100530, carboxymethylated dextran-coated chip) via the primary amine group using a standard amine coupling kit supplied by Biacore (GE Healthcare, Pittsburgh, PA, USA). Unreacted portions on the biosensor surface were blocked with ethanolamine. Then, the anti-CD40 antibody of the present application and two benchmark antibodies (BM1 (dacetuzumab, Genentech Inc., also referred to CD40-BM1, prepared in-house; the heavy and light chain amino acid sequences are set forth in SEQ ID NOs: 40 and 41, respectively) and BM2 (selicrelumab, Abgenix Inc., also referred to CD40-BM2, prepared in-house; the heavy and light chain amino acid sequences are set forth in SEQ ID NOS: 42 and 43, respectively)) at a concentration of 66.67 nM were directed through the chip at a flow rate of 10 μL/min. Then, serially diluted recombinant human CD40-his (Acro biosystems, Cat. No. CD0-H5228, serially 2-fold diluted from 80 nM in HBS-EP^+ buffer (supplied by Biacore)) or cynomolgus monkey CD40-his protein (Acro biosystems, Cat. No. CD0-C52H6, serially 2-fold diluted from 80 nM in HBS-EP^+ buffer (supplied by Biacore)) was directed through the chip at a flow rate of 30 μL/min. The antigen-antibody binding kinetics was tracked for 2 min and the dissociation kinetics was tracked for 10 min. The association and dissociation curves were fitted to a 1:1 Langmuir binding model using BIAcore evaluation software. KD, Ka, and Kd values were determined.
In general terms: Surface plasmon resonance follows binding to a sensor surface in real time, without labels.

The test system of data set [3] is Cynomolgus monkey CD40-his. The data set is described as above. The following applies: for Kd: dissociation rate.
Text: as §1, §2

In data set [4] the target is T1, Human CD40-his. Nature of the data set: Octet kinetics of humanized C1H1 antibodies. The following applies: Table 3, Octet. The class given is binding. The method, then: After six days of culture in a shake flask, the cell supernatant containing the humanized antibodies huC1H1-V1 to huC1H1-V4 was harvested and the binding affinity of the antibodies to human CD40 was determined on an Octet system (Fortebio, Octet RED 96) according to the following procedures. Briefly, an anti-human IgG Fc capture (AHC) biosensor (from ForteBio) was pre-soaked in a 10 mM glycine solution (pH 1.5) for 3 s, and then soaked in a running buffer (PBST containing 0.5% w/v of BSA) for 3 s. The pre-soaking and soaking procedures were repeated 3 times. Then, the sensor was soaked in the cell supernatant containing the humanized anti-CD40 antibody, chimeric antibody C1H1 dissolved in HBS-EP^+ buffer at a concentration of 5 μg/mL, or the benchmark dissolved in HBS-EP^+ buffer at a concentration of 5 μg/mL for 120 s, and then soaked in the running buffer for 5 min. The new baseline was run in the running buffer for 180 s. The sensor was then soaked for 120 s in human CD40-his protein (Acro biosystems, Cat. No. CD0-H5228) 2-fold serially diluted from 40 nM in the running buffer and for 10 min in the running buffer […]. Finally, the sensor was pre-soaked in a 10 mM glycine solution (pH 1.5) for 3 s, and then soaked in the running buffer for 3 s. The pre-soaking and soaking procedures were repeated 3 times. […]
Background: Biolayer interferometry detects binding as a change in optical thickness at a sensor tip.

Where [5] appears, read: Table 2, Biacore, association rate.
The mark [6] stands for this setting: Table 5, Biacore, purified antibodies.

Where a name gives a salt, the structure may show the parent alone.

T1 sequence (P25942 21-277): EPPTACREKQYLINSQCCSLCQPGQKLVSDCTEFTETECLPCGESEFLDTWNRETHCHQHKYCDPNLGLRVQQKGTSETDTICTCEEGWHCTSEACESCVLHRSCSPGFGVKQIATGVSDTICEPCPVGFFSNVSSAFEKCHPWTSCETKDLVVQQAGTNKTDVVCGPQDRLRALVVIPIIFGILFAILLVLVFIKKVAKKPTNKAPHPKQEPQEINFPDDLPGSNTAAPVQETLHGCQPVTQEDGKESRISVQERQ

As to `COc1cc2c(Oc3ccc4[nH]c(C)cc4c3F)ccnc2cc1OCC1(N)CC1` [anlotinib dihydrochloride, 1-[[[4-(4-fluoro-2-methyl-1H-indol-5-yl)oxy-6-methoxyquinolin-7-yl]oxy]methyl]cyclopropylamine, reference compound], the “Mean tumor volume (mean ± SD) D 0” value in data set [1] (baseline, huC1H1-V2 0.5 mg/kg i.p. once every 2 days × 8, anlotinib dihydrochloride 1 mg/kg intragastric daily × 15) was found to be 85.3 ± 3.8 mm^3. In addition, the “Mean tumor volume (mean ± SD) D 14” value in data set [1] (huC1H1-V2 0.5 mg/kg i.p. once every 2 days × 8, anlotinib dihydrochloride 1 mg/kg intragastric daily × 15) worked out at 1602.8 ± 137.1 mm^3. Also, the “TGI D 14 (tumor growth inhibition rate)” value in data set [1] (huC1H1-V2 0.5 mg/kg i.p., anlotinib dihydrochloride 1 mg/kg intragastric) is reported as 56%. Besides, in data set [1] (huC1H1-V2 0.5 mg/kg i.p., anlotinib dihydrochloride 1 mg/kg intragastric, tumor-bearing mice), the “Tolerability (symptoms such as weight loss)” value is recorded as “well tolerated”. For the same compound, the “T/C D 14” value in data set [1] (vs IgG2 group, huC1H1-V2 0.5 mg/kg i.p., anlotinib dihydrochloride 1 mg/kg intragastric) worked out at 44%.

“BM1: benchmark antibody dacetuzumab, Genentech Inc., prepared in-house; heavy and light chain SEQ ID NOs: 40 and 41 [reference compound]”: the Ka in data set [2] (setting [5]) was 739000 M⁻¹ s⁻¹; in data set [2] (setting [6]), 803000 M⁻¹ s⁻¹; in data set [3] (setting [5]) it was 623000 M⁻¹ s⁻¹; in data set [3] (setting [6]), 764000 M⁻¹ s⁻¹. Besides, the Kd in data set [2] (Table 2, Biacore) stood at 0.006556 s⁻¹; in data set [2] (Table 5, Biacore), 0.007562 s⁻¹; in data set [3] (Table 2, Biacore) it was 0.006164 s⁻¹; in data set [3] (Table 5, Biacore) it was 0.007397 s⁻¹.

Turning to “BM2: benchmark antibody selicrelumab, Abgenix Inc., prepared in-house; heavy and light chain SEQ ID NOs: 42 and 43 [reference compound]”, the Kd in data set [2] (Table 5, Biacore) was determined as 0.001616 s⁻¹; in data set [3] (Table 5, Biacore) it was 0.001508 s⁻¹; in data set [4] (dissociation rate) it was 0.000979 s⁻¹. For the same compound, the Ka came to 206000 M⁻¹ s⁻¹ in data set [2] (setting [6]); 173000 M⁻¹ s⁻¹ in data set [3] (setting [6]); 874000 M⁻¹ s⁻¹ in data set [4] (humanized antibodies in cell supernatant, chimeric and benchmark 5 μg/mL).
